Source: patent publication US8906917B2, “Pyrimidine cyclohexyl glucocorticoid receptor modulators” (Corcept Therapeutics, Inc., priority 2011, dated 2014)

Legend:
[1] = molecular target: T1, glucocorticoid receptors (endogenous) in SW1353/MMTV-5 cells (Homo sapiens, UniProt P04150); experiment: GR functional assay using SW1353/MMTV-5 cells (MMTV-GRE luciferase reporter); format: cell-based
T1 construct: contains endogenous glucocorticoid receptors; endogenous in cells; host or cells: SW1353/MMTV-5 (human chondrosarcoma, stably transfected with pMAMneo-Luc reporter)
T1 sequence (P04150 1-777): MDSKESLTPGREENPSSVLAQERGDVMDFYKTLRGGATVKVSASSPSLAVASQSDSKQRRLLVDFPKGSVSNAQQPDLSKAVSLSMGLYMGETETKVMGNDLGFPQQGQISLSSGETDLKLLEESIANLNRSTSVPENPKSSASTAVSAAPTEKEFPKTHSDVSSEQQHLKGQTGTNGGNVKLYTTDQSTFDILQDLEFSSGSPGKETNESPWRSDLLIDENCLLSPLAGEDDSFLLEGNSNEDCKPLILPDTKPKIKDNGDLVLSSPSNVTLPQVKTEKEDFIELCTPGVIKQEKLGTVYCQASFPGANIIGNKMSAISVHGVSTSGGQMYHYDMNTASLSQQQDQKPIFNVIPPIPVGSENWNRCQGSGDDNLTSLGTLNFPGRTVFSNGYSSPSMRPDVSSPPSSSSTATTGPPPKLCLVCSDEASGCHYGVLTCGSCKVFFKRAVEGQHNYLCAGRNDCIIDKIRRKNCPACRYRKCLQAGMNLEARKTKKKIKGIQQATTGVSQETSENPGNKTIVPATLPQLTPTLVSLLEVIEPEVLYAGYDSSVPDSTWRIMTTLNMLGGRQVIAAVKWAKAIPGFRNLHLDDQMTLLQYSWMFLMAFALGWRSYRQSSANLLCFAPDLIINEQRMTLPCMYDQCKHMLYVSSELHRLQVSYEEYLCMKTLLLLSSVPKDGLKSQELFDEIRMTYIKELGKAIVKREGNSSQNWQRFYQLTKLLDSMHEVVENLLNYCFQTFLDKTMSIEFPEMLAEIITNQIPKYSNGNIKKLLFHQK
Experimental: SW1353/MMTV-5 is an adherent human chondrosarcoma cell line that contains endogenous glucocorticoid receptors. It was transacted with a plasmid (pMAMneo-Luc) encoding firefly luciferase located behind a glucocorticoid-responsive element (GRE) derived from a viral promoter (long terminal repeat of mouse mammary tumor virus). A stable cell line SW1353/MMTV-5 was selected with geneticin, which was required to maintain this plasmid.
SW1353/MMTV-5 cells were distributed in 96-well plates and incubated in medium (without geneticin) for 24 hrs.

[2] = molecular target: T2, Human Recombinant Glucocorticoid Receptor (Homo sapiens, UniProt P04150); experiment: Glucocorticoid receptor binding displacement assay with 3H-dexamethasone; conditions: displacement of 2.5 nM 3H-dexamethasone, 2.5 hrs at 4° C.; Ki from IC50 by Cheng-Prusoff; read-out: GR Binding Ki
T2 construct: This GR was a full-length steroid hormone receptor; host or cells: recombinant baculovirus-infected insect cells
T2 sequence (P04150 1-777): T1 sequence (P04150 1-777)
Experimental: Binding protocol: Compounds were tested in a binding displacement assay using human recombinant glucocorticoid receptor with ^3H-dexamethasone as the ligand. The source of the receptor was recombinant baculovirus-infected insect cells. This GR was a full-length steroid hormone receptor likely to be associated with heat-shock and other endogenous proteins.
For the IC50 determinations, test compounds were tested at 6 concentrations in duplicate. Test compounds were diluted from 10 mM stock in 100% DMSO. The tested solutions were prepared at 2× final assay concentration in 2% DMSO/assay buffer.
All reagents and the assay plate were kept on ice during the addition of reagents. The reagents were added to wells of a v-bottomed polypropylene plate in the following order: 25 μl of 10 nM 3H-dexamethasone solution, 50 μl of TB/NSB/compound solution and 25 μl of 2 nM GR solution. After the additions, the incubation mixture was mixed and incubated for 2.5 hrs at 4° C.
Alter 2.5 hrs incubation, unbound counts were removed with dextran coated charcoal (DCC) as follows: 15 μl of DCC solution (10% DCC in assay buffer) was added to all wells and mixed (total volume 115 μl). The plate was centrifuged at 4000 rpm for 10 minutes at 4° C. 75 μl of the supernatants was carefully pipetted into an optiplate. 150 μl of scintillation cocktail were added (Microscint-40, Perkin Elmer). The plate was vigorously shaken for approx. 10 minutes and counted on Topcount.
The IC50 values were converted to Ki (the inhibition constant) using the Cheng-Prusoff equation.
Reagents: Assay buffer: 10 mM potassium phosphate buffer pH 7.6 containing 5 mM DTT, 10 mM sodium molybdate, 100 μM EDTA and 0.1% BSA.

Row | SMILES | Ki [1] [nM] | Ki [2] [nM]
1 | O=c1[nH]c(=O)c(Cc2cccc(C(F)(F)F)c2)c([C@H]2CC[C@H](c3ccccc3)CC2)[nH]1 [Compound 3b, (E)-6-(4-Phenylcyclohexyl)-5-(3-trifluoromethylbenzyl)-1H-pyrimidine-2,4-dione] | < 50 | 5 to 10
2 | O=c1[nH]c(C2=CCC(c3ccccc3)CC2)c(Cc2ccccc2Cl)c(=O)[nH]1 (stereo not shown) [Compound 2c] | > 100 | 5 to 10
